pIC50: −log10 of the molar value.
Key:
[1] = biological target: T1, sEH (Homo sapiens, UniProt P34913); test: inhibition of sEH; type: biochemical
T1 sequence (P34913 1-555): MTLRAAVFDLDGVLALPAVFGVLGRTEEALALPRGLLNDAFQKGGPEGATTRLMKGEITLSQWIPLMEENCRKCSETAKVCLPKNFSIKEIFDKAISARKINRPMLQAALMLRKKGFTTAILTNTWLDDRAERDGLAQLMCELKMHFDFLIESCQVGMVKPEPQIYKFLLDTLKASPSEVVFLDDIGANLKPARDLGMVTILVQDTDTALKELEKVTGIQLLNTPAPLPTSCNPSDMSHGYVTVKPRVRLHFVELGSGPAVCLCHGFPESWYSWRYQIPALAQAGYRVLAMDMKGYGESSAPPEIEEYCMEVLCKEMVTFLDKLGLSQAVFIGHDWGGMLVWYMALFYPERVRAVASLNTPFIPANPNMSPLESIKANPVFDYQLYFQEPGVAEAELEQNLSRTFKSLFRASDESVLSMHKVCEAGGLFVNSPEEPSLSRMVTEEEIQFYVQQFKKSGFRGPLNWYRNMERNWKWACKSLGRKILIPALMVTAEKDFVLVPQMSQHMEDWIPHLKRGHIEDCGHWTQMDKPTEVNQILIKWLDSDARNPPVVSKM
Text: (§1) Any of a number of standard assays for determining epoxide hydrolase activity can be used to determine inhibition of sEHI. […] Suitable in vitro assays are described in Zeldin et al. J. Biol. Chem. 268:6402-6407 (1993). Suitable in vivo assays are described in Zeldin et al., Arch Biochem Biophys 330:87-96 (1996).
(§2) The enzyme also can be detected based on the binding of specific ligands to the catalytic site which either immobilize the enzyme or label it with a probe such as dansyl, fluoracein, luciferase, green fluorescent protein or other reagent. The enzyme can be assayed by its hydration of EETs, its hydrolysis of an epoxide to give a colored product as described by Dietze et al., 1994, supra, or its hydrolysis of a radioactive surrogate substrate (Borhan et al., 1995, supra). The enzyme also can be detected based on the generation of fluorescent products following the hydrolysis of the epoxide. Numerous methods of epoxide hydrolase detection have been described (see, e.g., Wixtrom, supra).
(§3) The assays are normally carried out with a recombinant enzyme following affinity purification. They can be carried out in crude tissue homogenates, cell culture or even in vivo, as known in the art and described in the references cited above.

[2] = metabolism and stability; details: in vivo
[3] = biological target: T2, rat sEH (Rattus norvegicus, UniProt P80299); test: rat sEH inhibition; type: biochemical
T2 sequence (P80299 1-554): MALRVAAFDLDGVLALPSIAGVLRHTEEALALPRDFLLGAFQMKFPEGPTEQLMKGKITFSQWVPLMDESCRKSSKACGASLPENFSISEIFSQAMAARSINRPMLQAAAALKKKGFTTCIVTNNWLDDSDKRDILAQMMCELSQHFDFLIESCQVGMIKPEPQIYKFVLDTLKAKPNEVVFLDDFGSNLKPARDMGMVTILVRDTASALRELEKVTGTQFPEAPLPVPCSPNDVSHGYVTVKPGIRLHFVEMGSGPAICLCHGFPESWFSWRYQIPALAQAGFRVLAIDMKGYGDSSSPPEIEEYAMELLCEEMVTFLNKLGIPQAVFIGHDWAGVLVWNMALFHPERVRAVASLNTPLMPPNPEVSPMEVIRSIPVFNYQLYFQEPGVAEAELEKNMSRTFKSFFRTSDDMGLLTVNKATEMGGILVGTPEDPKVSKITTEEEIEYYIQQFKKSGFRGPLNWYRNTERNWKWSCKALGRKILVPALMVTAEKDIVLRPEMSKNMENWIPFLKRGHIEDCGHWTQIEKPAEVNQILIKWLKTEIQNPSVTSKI

[4] = system: sEH; test: inhibition of sEH; type: biochemical; details: relative to parent compound
Text: as §1, §2, §3

[5] = system: streptozocin induced neuropathic pain; test: von Frey test (mechanical allodynia) in streptozocin neuropathic rats; type: in vivo, rat; details: neuropathic pain model
Protocol: Male Sprague-Dawley rats weighing 250-300 grains were used. Animals were individually housed at UC Davis Animal Resource Facility under standard conditions with free access to food and water, and maintained for at least 1 week before the experiments. Pain was quantified using three tests, the hind paw withdrawal latency test, the mechanical hyperalgesia test and the mechanical allodynia test. All the experiments were performed during the daytime.
Rats were first trained to the experimental chamber in two separate sessions. On the day of the induction of neuropathy, the animals' basal response to all three tests were measured and then streptozocin (50 mg/kg) was administered intravenously. Animals were then followed over time for the development of neuropathic pain. An inhibitor of sEH was administered subcutaneously one week after the onset of pain symptoms. […] Compounds were formulated by dissolving them in ethanol and mixing with trans free oleic oil. At least six animals per group were used. The Von Frey test was conducted by stimulating the plantar surface of the rats' hind paw with a calibrated filament connected to a force transducer. As this filament is applied the amount of force exerted on the paw increases and the animal withdraws its paw when the force reaches its threshold. […] In the Randal-Selitto test a similar principle is used. The animals' hind paw is placed between a flat surface and a pointed tip of a force transducer. The pointed tip exerts force on the dorsal face of the paw. […] The two tests are complementary, but depend on the activity of different groups of nociceptors.
Treatments and behavioral nociceptive tests. […] Following baseline measurements, rats were first treated with 200 μl of vehicle or compound-formulated cream by topical application to one hindpaw, LPS ([…] in 50 μl 0.9% NaCl) was injected into the plantar surface of the treated paw. For subcutaneous administration, compounds were injected immediately after intraplantar LPS. […] A probe fitted with a filament that is connected to a force transducer was applied to the plantar hind paw surface through a wire-mesh platform until eliciting a withdrawal reflex. The duration of heat application or the force (gr) necessary to elicit a withdrawal was designated as TWL and MWT. The steroidogenesis inhibitors were applied 2 hours before sEHI and LPS administration. Diabetes was induced by intravenous injection of 50 mg/kg streptozocin (STZ) in saline following baseline measurements. Diabetic animals were tested at least one week after STZ administration. Three measurements were taken from each animal at each time point and average responses were converted to percent analgesia index based on each animals' baseline response.

[6] = system: streptozocin induced neuropathic pain; test: mechanical hyperalgesia test (Randal-Selitto) in streptozocin neuropathic rats; type: in vivo, rat
Protocol: Male Sprague-Dawley rats weighing 250-300 grains were used. Animals were individually housed at UC Davis Animal Resource Facility under standard conditions with free access to food and water, and maintained for at least 1 week before the experiments. Pain was quantified using three tests, the hind paw withdrawal latency test, the mechanical hyperalgesia test and the mechanical allodynia test. All the experiments were performed during the daytime. Rats were first trained to the experimental chamber in two separate sessions. On the day of the induction of neuropathy, the animals' basal response to all three tests were measured and then streptozocin (50 mg/kg) was administered intravenously. Animals were then followed over time for the development of neuropathic pain. An inhibitor of sEH was administered subcutaneously one week after the onset of pain symptoms. […] Pain response was measured at 60, 120, 240 and 480 minutes after the administration of the sEHI. Compounds were formulated by dissolving them in ethanol and mixing with trans free oleic oil. At least six animals per group were used. The Von Frey test was conducted by stimulating the plantar surface of the rats' hind paw with a calibrated filament connected to a force transducer. As this filament is applied the amount of force exerted on the paw increases and the animal withdraws its paw when the force reaches its threshold. […] In the Randal-Selitto test a similar principle is used. The animals' hind paw is placed between a flat surface and a pointed tip of a force transducer. The pointed tip exerts force on the dorsal face of the paw. […] The two tests are complementary, but depend on the activity of different groups of nociceptors.

Row | pIC50 [3] | SMILES | activity as inhibitor of sEH [1] | metabolic stability [2] | fold less active in inhibiting sEH than parent compound [4] | pain scores of diabetic rats [5] | pain, mechanical hyperalgesia test (FIG. 3) ([6]; 25 mg/kg) | mechanical allodynia induced by diabetic neuropathy (FIG. 3 legend) ([6]; compound 1010 at equivalent dose)
1 |  | CCCCCCCCCCCCNC(=O)NC12CC3CC(CC(C3)C1)C2 [ADU, N-Adamantyl-N-dodecyl urea] | particularly high activity on sEH | metabolically stable |  |  |  | 
2 | 5.93 | CCOCCOCCOCCCCCNC(=O)NC12CC3CC(CC(O)(C3)C1)C2 [compound 1010, reference compound] |  |  | 250 fold | not | showed no effectiveness | shows no effectiveness in reducing nociception

Source: US8399425B2, “Alleviating neuropathic pain with EETs and sEH inhibitors” (The Regents of the University of California, priority 2007, dated 2013)
